Data taken from ChEMBL document CHEMBL5233265, “Recent advances in the design and development of formyl peptide receptor 2 (FPR2/ALX) agonists as pro-resolving agents with diverse therapeutic potential” (Eur J Med Chem, 2021).
Values belong to the compound of their own block, whether it stands above or below them.

How the values were obtained:
Format in all cases: cell-based
[1] = biological target: T1, N-formyl peptide receptor 2 (Homo sapiens, UniProt P25090); experiment: Agonist activity at human FPR2 expressed in CHO cells assessed as cAMP level incubated for 1.5 hr by HTRF assay
T1 sequence (P25090 whole entry): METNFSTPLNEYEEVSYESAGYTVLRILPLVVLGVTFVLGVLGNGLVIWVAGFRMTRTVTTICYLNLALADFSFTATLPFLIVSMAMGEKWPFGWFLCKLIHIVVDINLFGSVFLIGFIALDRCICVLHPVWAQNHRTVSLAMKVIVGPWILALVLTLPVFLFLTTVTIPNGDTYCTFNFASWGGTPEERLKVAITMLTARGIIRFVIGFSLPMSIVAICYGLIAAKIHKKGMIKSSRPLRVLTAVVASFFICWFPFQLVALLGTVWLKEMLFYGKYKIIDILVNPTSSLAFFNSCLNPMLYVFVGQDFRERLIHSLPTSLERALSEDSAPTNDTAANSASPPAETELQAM

fMet-Leu-Phe receptor [2] = biological target: T2, fMet-Leu-Phe receptor (Homo sapiens, UniProt P21462); experiment: Agonist activity at human FPR1 expressed in CHO cells assessed as cAMP level incubated for 1.5 hr by HTRF assay; conditions: cho
T2 sequence (P21462 whole entry): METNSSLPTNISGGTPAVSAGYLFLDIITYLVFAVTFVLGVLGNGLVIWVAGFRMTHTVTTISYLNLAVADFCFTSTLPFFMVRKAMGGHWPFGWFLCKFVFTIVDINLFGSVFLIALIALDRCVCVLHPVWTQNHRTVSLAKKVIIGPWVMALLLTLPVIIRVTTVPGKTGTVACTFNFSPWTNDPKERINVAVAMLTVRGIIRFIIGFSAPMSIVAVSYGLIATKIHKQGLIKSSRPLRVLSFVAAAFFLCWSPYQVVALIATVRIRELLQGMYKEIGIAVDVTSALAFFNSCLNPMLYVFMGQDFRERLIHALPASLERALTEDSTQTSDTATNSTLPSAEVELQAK

[3] = biological target: T1, N-formyl peptide receptor 2; experiment: Agonist activity at human FPR2 transfected in HL-60 cells assessed as increase in intracellular calcium flux incubated for 30 mins by Fluo-4 AM dye based fluorometer analysis
fMet-Leu-Phe receptor [4] = biological target: T2, fMet-Leu-Phe receptor; experiment: Agonist activity at human FPR1 transfected in HL-60 cells assessed as increase in intracellular calcium flux incubated for 30 mins by Fluo-4 AM dye based fluorometer analysis
[5] = biological target: T3, N-formyl peptide receptor 2 (Homo sapiens) (UniProt P25090); experiment: Agonist activity at human FPR2 transfected in HL-60 cells assessed as maximal intracellular calcium flux incubated for 30 mins by Fluo-4 AM dye based fluorometer analysis relative to control; conditions: filed as agonist
T3 sequence (whole entry): T1 sequence (P25090 whole entry)

[6] = biological target: T1, N-formyl peptide receptor 2; experiment: Agonist activity at human FPR2 expressed in CHO cells assessed as increase in calcium flux incubated for 50 mins by FLIPR calcium 5 dye based fluorescence assay
[7] = biological target: T3, N-formyl peptide receptor 2 (Homo sapiens); experiment: Agonist activity at FPR2 (unknown origin) expressed in CHO/Galpha16 cells assessed as maximal calcium flux at 0.61 to 10000 nM by FLIPR assay relative to control; conditions: dose 0.61-10000 nM
Homo sapiens = species on record: Homo sapiens; experiment: Selectivity index, ratio of EC50 for agonist activity at FPR2 (unknown origin) expressed in CHO/Galpha16 cells to EC50 for FPR1 (unknown origin) expressed in CHO/Galpha16 cells
[8] = biological target: T4, fMet-Leu-Phe receptor (Homo sapiens) (UniProt P21462); experiment: Agonist activity at FPR1 (unknown origin) expressed in CHO/Galpha16 cells assessed as maximal calcium flux at 0.61 to 10000 nM by FLIPR assay relative to control; conditions: dose 0.61-10000 nM
T4 sequence (whole entry): T2 sequence (P21462 whole entry)

[9] = biological target: T1, N-formyl peptide receptor 2; experiment: Agonist activity at FPR2 (unknown origin) expressed in CHO/Galpha16 cells assessed as increase in calcium flux by FLIPR assay
fMet-Leu-Phe receptor [10] = biological target: T2, fMet-Leu-Phe receptor; experiment: Agonist activity at FPR1 (unknown origin) expressed in CHO/Galpha16 cells assessed as increase in calcium flux by FLIPR assay
fMet-Leu-Phe receptor [11] = biological target: T2, fMet-Leu-Phe receptor; experiment: Agonist activity at human FPR1 expressed in CHO cells assessed as increase in calcium flux incubated for 50 mins by FLIPR calcium 5 dye based fluorescence assay

EC50 [1]: < 5 nM
EC50 (fMet-Leu-Phe receptor [2]): Not Active
Compound: CS(=O)(=O)Nc1ccccc1-c1ccc(N2CCC[C@@H](NC(=O)Nc3ccc(C(F)(F)F)nc3)C2=O)cc1

EC50 ([3]; read-out: EC50): 7000 nM
EC50 (fMet-Leu-Phe receptor [4]; hl-60): Not Active
Emax [5]: 70%
Compound: COc1ccc(NC(=O)N[C@H](Cc2ccc(C#N)cc2)C(=O)NCC2(c3ccc(O)cc3)CC2)cc1

EC50 [6]: < 1 nM
Compound: COc1ccc([C@H]2CCNC(=O)[C@@H]2NC(=O)Nc2ccc(Cl)cc2)cc1

EC50 [1]: < 5 nM
Compound: NC(=O)c1ccccc1-c1ccc(N2CCC[C@@H](NC(=O)Nc3ccc(Cl)cc3)C2=O)cc1

Emax [7]: 56%
Emax [8]: 103%
Compound: CC(C)C(C(=O)O)C(C)NC(=O)Nc1ccc(Br)cc1 (stereo in doubt; 19)
Ratio EC50 (Homo sapiens): 249

EC50 [1]: 40 nM
Compound: NC(=O)c1ccccc1-c1ccc(N2CCC[C@H](NC(=O)Nc3ccc(C(F)(F)F)cc3)C2=O)cc1

EC50 [9]: 855 nM
EC50 (fMet-Leu-Phe receptor [10]): 51 nM
Compound: CC(C)C(C(=O)O)C(C)NC(=O)Nc1ccc(Br)cc1 (stereo in doubt; 18)

Emax [7]: 81%
Emax [8]: 99%
Compound: CC(C)C[C@H](NC(=O)CCNC(=O)Nc1ccc(Br)cc1)C(=O)O
Ratio EC50 (Homo sapiens): 74

EC50 [1]: < 10 nM
EC50 (fMet-Leu-Phe receptor [2]): Not Active
Compound: COc1cc(F)c([C@@H]2CNC(=O)[C@H]2NC(=O)NC2(c3cccc(C)n3)CC2)c(F)c1

EC50 ([3]; read-out: EC50): 1600 nM
EC50 (fMet-Leu-Phe receptor [4]; read-out: EC50): 1300 nM
Emax [5]: 75%
Compound: COc1ccc(NC(=O)N[C@@H](Cc2ccc(C#N)cc2)C(=O)NCC2(c3ccc(O)cc3)CC2)cc1

EC50 [1]: < 5 nM
Compound: O=C(Nc1ccc(C(F)(F)F)cc1)NC1CCCN(c2ccc(-c3ccccc3F)cc2)C1=O (racemic)

EC50 [1]: 2.9 nM
Compound: CP(C)(=O)c1ccccc1-c1ccc(N2CC[C@@H](NC(=O)Nc3csc(Cl)c3)C2=O)c(F)c1F

EC50 [1]: 100 nM
EC50 (fMet-Leu-Phe receptor [2]): Not Active
Compound: Cc1cccc(C2(NC(=O)N[C@@H]3C(=O)NC[C@H]3c3c(F)cc(Cl)cc3F)CC2)n1

EC50 ([3]; hl-60): Not Active
EC50 (fMet-Leu-Phe receptor [4]; hl-60): Not Active
Compound: N#Cc1ccc(C[C@@H](NC(=O)Nc2ccc(O)cc2)C(=O)NCC2(c3ccccc3)CC2)cc1

EC50 (fMet-Leu-Phe receptor [11]): 1 nM
EC50 [6]: 1 nM
Compound: COc1ccc([C@H]2CCN(Cc3cccnc3)C(=O)[C@@H]2NC(=O)Nc2ccc(F)cc2)cc1 (relative stereo)

EC50 [1]: < 5 nM
Compound: O=C(Nc1ccc(C(F)(F)F)cc1)N[C@@H]1CCCN(c2ccc(-c3ccccc3F)cc2)C1=O

EC50 ([3]; read-out: EC50): 7000 nM
EC50 (fMet-Leu-Phe receptor [4]; hl-60): Not Active
Emax [5]: 70%
Compound: COc1ccc(NC(=O)N[C@H](Cc2ccc(C#N)cc2)C(=O)NCC2(c3cccc(O)c3)CC2)cc1

EC50 [9]: 9940 nM
EC50 (fMet-Leu-Phe receptor [10]): 98 nM
Compound: CC(C)C(C(=O)O)C(C)NC(=O)Nc1ccc(Br)cc1 (stereo in doubt; 20)

EC50 (fMet-Leu-Phe receptor [11]): 1 nM
EC50 [6]: 1 nM
Compound: COc1ccc([C@H]2CCN(c3ccnnc3)C[C@@H]2NC(=O)Nc2ccc(Cl)cc2)cc1 (relative stereo)

EC50 [1]: < 5 nM
EC50 (fMet-Leu-Phe receptor [2]): Not Active
Compound: CS(=O)(=O)Nc1ccccc1-c1ccc(N2CCC[C@@H](NC(=O)Nc3cnc(Cl)cn3)C2=O)cc1

Emax [8]: 93%
Compound: CC(C)C(C(=O)O)C(C)NC(=O)Nc1ccc(Br)cc1 (stereo in doubt; 21)

EC50 [1]: 100 nM
Compound: CC(=O)N1CCN(c2ccc(N3CCC[C@@H](NC(=O)Nc4ccc(C(F)(F)F)cc4)C3=O)cc2)CC1

EC50 (fMet-Leu-Phe receptor [11]; cho): 1 nM
EC50 [6]: < 1 nM
Compound: COc1cc(F)c([C@H]2CCN(CCC(F)F)C[C@@H]2NC(=O)Nc2ccc(Cl)cc2)c(F)c1 (relative stereo; form 2)

Emax [7]: 91%
Emax [8]: 100%
Compound: CC(C)C[C@H](NC(=O)CNC(=O)Nc1ccc(Br)cc1)C(=O)O
Ratio EC50 (Homo sapiens): 386

EC50 [1]: 10 nM
Compound: O=C(Nc1ccc(C(F)(F)F)cc1)N[C@@H]1CCCN(c2ccc(N3CC4(COC4)C3)cc2)C1=O

EC50 (fMet-Leu-Phe receptor [11]): 1 nM
EC50 [6]: < 1 nM
Compound: COc1ccc([C@H]2CCN(Cc3ccccn3)C(=O)[C@@H]2NC(=O)Nc2ccc(F)cc2)cc1 (relative stereo)

EC50 ([3]; hl-60): Not Active
EC50 (fMet-Leu-Phe receptor [4]; hl-60): Not Active
Compound: N#Cc1ccc(C[C@H](NC(=O)Nc2ccc(O)cc2)C(=O)NCC2(c3ccccc3)CC2)cc1
